Results from patent US7601805B2, “Photoprotein with improved bioluminescence” (AXXAM S.R.L., priority 2002, dated 2009).

How the values were obtained:
[1] = molecular target: T1, rat VR1 capsaicin receptor (Rattus norvegicus, UniProt O35433); test: Capsaicin-stimulated flash luminescence in CHO cells expressing Apophotin and rat VR1; type: cell-based; settings: 10 and 50 μM capsaicin; CHO cells with Apophotin and rat VR1 (FIG. 5)
T1 construct: expressed in transfected cells; host or cells: CHO
Description: The specific agonist, capsaicin, was used at a concentration of 10 and 50 μM.
3.3 CHO cell lines expressing both Apophotin and the rat VR1 capsaicin receptor—a calcium-permeable ion channel—were grown to 80-95% confluence in tissue culture flasks and harvested by trypsinization. Cells were dispensed at 10,000 cells/well in a 96-well white plates in growth medium and incubated overnight at 37° C. in a humidified incubator at 5% CO2. For luminescence experiments, the cells were loaded with coelenterazine 10 μM for 3 h at 37° C., 5% CO2. Calcium response was stimulated by addition of 10 and 50 μM capsaicin to each well. The kinetics of flash luminescence was followed using Labsystem Luminoskan Ascent, which injects reagents and records light emission from each single well.

[2] = test system: endogenous ATP receptor expressed by CHO-K1 cell; test: ATP-stimulated light emission in CHO-K1 cells transfected with Photin DNA; type: cell-based; settings: two different concentrations of ATP (FIG. 3A)
Description: Cell transfection, harvesting, and Photin expression were performed as described in Example 1. Cells were treated with two different concentration of ATP. (B) The CHO-K1 cells transfected with Obelin DNA were used as positive control. Luminescence is expressed in RLU (relative light units).
3.1 Photin-expressing clones have been obtained by transfection of CHO-K1 cells (Materials and Methods). Two days after transfection the cells were trypsinized and diluted 10 or 100 times. Once the cells were grown up to well isolated colonies, the colonies were transferred to new plates and selected on the basis of their functional response (luminescent signal) to different concentration of ATP, which is known to stimulate the CHO endogenous receptor and to rise the cytoplasmic Ca^++ concentration. At the end of each experiment, cells were lysed by perfusion of a solution containing TritonX-100 and CaCl2. The active photoprotein was reconstituted incubating the cells with 10 μM coelenterazine diluted in PBS containing 2 mM calcium, in the dark at 37° C. in a 5% CO2 atmosphere for 3 hrs. For light emission measurement, cells were lysed in the presence of calcium and the emitted luminescence recorded. […] To detect changes in calcium concentrations, 10, 50 and 100 μM ATP were injected and the kinetics of calcium response determined. […]

T1 sequence (O35433 whole entry): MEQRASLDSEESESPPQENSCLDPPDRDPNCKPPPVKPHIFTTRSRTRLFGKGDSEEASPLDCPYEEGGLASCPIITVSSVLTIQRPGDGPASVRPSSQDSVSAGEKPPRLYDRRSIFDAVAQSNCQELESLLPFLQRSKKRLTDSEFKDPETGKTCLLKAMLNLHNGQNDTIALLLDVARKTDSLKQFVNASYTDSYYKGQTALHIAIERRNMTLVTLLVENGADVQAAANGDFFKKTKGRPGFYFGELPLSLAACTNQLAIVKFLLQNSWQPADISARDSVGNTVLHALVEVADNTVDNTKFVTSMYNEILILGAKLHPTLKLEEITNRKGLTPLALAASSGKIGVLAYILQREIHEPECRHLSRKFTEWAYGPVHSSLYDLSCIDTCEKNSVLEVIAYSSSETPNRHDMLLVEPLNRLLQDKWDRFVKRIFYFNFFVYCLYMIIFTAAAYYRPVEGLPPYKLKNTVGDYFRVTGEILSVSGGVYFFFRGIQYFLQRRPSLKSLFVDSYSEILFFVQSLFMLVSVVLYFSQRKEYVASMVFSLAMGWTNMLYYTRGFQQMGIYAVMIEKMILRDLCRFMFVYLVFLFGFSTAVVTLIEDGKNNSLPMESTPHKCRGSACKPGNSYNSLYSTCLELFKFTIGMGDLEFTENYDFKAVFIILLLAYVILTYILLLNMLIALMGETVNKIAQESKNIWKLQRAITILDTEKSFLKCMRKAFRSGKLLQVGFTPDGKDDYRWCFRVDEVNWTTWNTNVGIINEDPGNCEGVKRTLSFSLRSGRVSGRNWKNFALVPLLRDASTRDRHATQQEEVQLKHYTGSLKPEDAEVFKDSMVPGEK

What does the source list for `COc1cc(CNC(=O)CCCC/C=C/C(C)C)ccc1O` [capsaicin]?
time of peak level of luminescence signal [1]: about 10 seconds; time within which the rapid and transient luminescence signal occurred [1]: ≤ 30 s

Which “light emission upon stimulation of the endogenous ATP receptor” value [2] does the source give for `Nc1ncnc2c1ncn2[C@@H]1O[C@H](COP(=O)(O)OP(=O)(O)OP(=O)(O)O)[C@@H](O)[C@H]1O` [ATP] here?
The value was “dose dependent light emission”.
